In patent US10869850B2, “Nitrated-fatty acids modulation of type II diabetes” (University of Pittsburgh—Of the Commonwealth System of …, priority 2007, dated 2020):
Entries after “also recorded” stand apart in the source; their conditions may differ. Where two headings read alike, the source gives them in different places.

Experiments:
ob/ob mice [1] = conditions: mouse, in vivo
WT mice [2] = assay: blood glucose levels in fed WT mice (FIG. 2); type: in vivo, mouse
Description: Similar results are observed in experiments involving ob/ob mice.

[3] = analysis of mouse plasma after intravenous administration of nitro oleic acid; type: in vivo
Experimental: In contrast, the plasma levels for the β-oxidation products are highest at around 60 minutes.

ob/ob mice [4] = assay: insulin sensitivity in ob/ob mice (FIG. 6); type: in vivo, mouse
WT mice [5] = assay: insulin sensitivity in WT mice (FIG. 5); type: in vivo, mouse
ob/ob mice [6] = assay: blood glucose levels in leptin-deficient diabetic ob/ob mice (FIG. 3); type: in vivo, mouse; conditions: for blood glucose levels: over the course of the study, FIG. 3
Description: In a related vein, the invention encompasses a method for gauging the therapeutic efficacy of the composition as described above. This method involves obtaining at least two blood samples from a subject at different times during treatment and measuring the level of blood glucose in each sample.

ob/ob mice [7] = assay: body weight of ob/ob mice (FIG. 4); conditions: entire course of the study
WT mice [8] = assay: body weight of WT mice (FIG. 4); conditions: course of the study (25 days)
[9] = following intravenous administration of nitro oleic acid

shape of plasma level curve as a function of time [3, 9] | time of peak plasma concentration [3, 9] | Compound | side-effects of weight gain and fluid retention (ob/ob mice [1]) | effectiveness in maintaining blood glucose levels compared with Rosiglitazone (WT mice [2]; WT mice) | blood glucose level (WT mice [2]; fed WT mice) | physiological fate (metabolism in vivo) ([3]; intravenous administration) | insulin sensitivity (ob/ob mice [4]) | blood glucose levels after administration of insulin (ob/ob mice [4]; FIG. 6) | blood glucose levels after administration of insulin (WT mice [5]) | blood glucose levels on day 21 versus beginning of the study (ob/ob mice [6]; day 21, FIG. 3) | blood glucose levels (ob/ob mice [6]) | body weight (ob/ob mice [7]) | body weight (WT mice [8]) | body weight (ob/ob mice [1])
biphasic | around 5 minutes | 9- or 10-nitro octadecenoic acid [nitro oleic acid] | without the side-effects of weight gain and fluid retention | at least as effective as Rosiglitazone | maintains a steady blood glucose level | converted in-vivo, to its saturated analog, or can undergo β-oxidative cleavage | improves insulin sensitivity | substantial decrease in blood glucose levels | initial drop in blood glucose levels followed by an elevation to normal levels | significantly lower on day 21 than at the beginning of the study | lower blood glucose levels; also recorded: effective in reducing blood glucose levels |  |  | 
 |  | CN(CCOc1ccc(CC2SC(=O)NC2=O)cc1)c1ccccn1 (stereo not drawn) [Rosiglitazone] |  |  |  |  |  |  |  |  |  | steady increase in body weights | do not change over the course of the study | 
 |  | CCCCCCCC/C=C\CCCCCCCC(=O)O [oleic acid, (Z)-octadec-9-enoic acid, reference compound] |  |  |  |  |  |  |  |  | blood glucose levels increased over the course of the study |  |  | steady increase in body weights
